# Assay results published in patent US10759754B2, “Aminobenzoic acid derivatives for use as anti-inflammatory agents, anti-metastatic agents and/or anticancer agents” (3R VALO, S.E.C., priority 2016, dated 2020).
# Entries after “also recorded” stand apart in the source; their conditions may differ.
# Key:
# [1] = system: MHC-II; test: Flow cytometry of MHC-II surface antigen in IFNγ-activated human macrophages; type: cell-based; conditions: compound 4 at 10 μM, compound 5 at 25 μM
# Method: Surface antigen expression analysis. To study membrane receptor expression, THP1-derived human macrophages (750×10^4 cells/mL) were pretreated for 3 h with DMSO or compounds 4 and 5, and then left untreated (control) or treated for 48 h with 50 U/mL IFNγ. The expression level of MHC-II and CD40 was evaluated by flow cytometry as described.^21-23
# [2] = system: MB49-I cells; test: Relative cell viability of MB49-I cells 24-hour post treatment; type: cell-based, murine; conditions: 3 h treatment, 0-50 μM
# Method: Evaluation of cell proliferation by the MTT assay. […] Cells were pretreated for a period of 3 h with vehicle (DMSO) or derivatives 1 and 1A at 0, 10, 25, 37.5, and 50 μM, and then incubated for 24 h in the absence or the presence of INFγ and TNFα. At the end of the culture period, 10 μL of 5 mg/mL methylthiazolyldiphenyl-tetrazolium bromide (MTT) solution was added to each well. After a 3-h incubation period with MTT reagent, 100 μL of MTT solubilization buffer (10% SDS in 10 mM HCl) was added and plates were placed overnight in the cell incubator before absorbance measure. The optical density was read at 580 nm using the Microplate Reader Manager (from Bio-Rad Laboratories).
# [3] = system: human UBC T24 cells; test: Motility (scratch) assay, IL6-induced, in T24 cells; type: cell-based; conditions: 30 μM
# [4] = system: MDA-MB-241 cells; test: 3D spheroid-based tumor invasion assay; type: cell-based, human; conditions: 30 μM, day 4 vs day 0
# Method: Cellular analysis of 3D spheroid-based tumor invasion assays. Cell preparation and spheroid formation were performed following the manufacturer instructions (Corning). Briefly, MDA-MB-231 cells were harvested and diluted to a concentration of 5×10^4 cells/mL in (complete) culture media supplemented with 10% serum. 100 μL of cell suspension was then pipetted to appropriate 96 well spheroid formation plate and placed at 37° C./5% CO2. Spheroid formation was monitored every 24 hours. The typical cell aggregation period was 48 hours. Upon spheroid formation completion, 70 μL of complete medium was removed from each well, and replaced by 70 μL of serum-free medium. This was repeated on a daily basis to create a serum starvation period of 48 hours. Matrigel matrix (100 μL) was then added to each well. The plate was centrifuged at 300×g for 5 minutes in a swinging bucket centrifuge. The plate was then transferred to a 37° C./5% CO2 incubator for one hour to initiate gel formation. Following the 1-hour gel formation incubation period, DMSO or compound 4 was added to appropriate wells during 60 minutes. After pretreatment, the media was removed and replaced by complete culture media, and then the media was changed every day for a period of 4 days. […] These protrusions were identified, and their area and perimeter properly quantified using the ImageJ software (National Institutes of Health).
# [5] = system: C57Bl/6J mice; test: Acute toxicity study with episodic i.p. injections in C57Bl/6J mice; type: in vivo
# [6] = system: MB49-I tumors; test: Ectopic UBC model, MB49-I tumors implanted in the flank of male mice; type: in vivo
# Method: Ectopic UBC model. Male C57BL/6J mice (6-8 weeks old), each weighing 15-18 g, were used for the experiments (supplied by Charles River). The mice were housed with free access to food and water on a 12:12 h light:dark cycle with the room temperature maintained at 21° C. MB49 cells, MB49-I cells, and iNOS-deficient MB49-I cells ([…] in 100 μL PBS) were injected subcutaneously (s.c.) into the right flank of the mice. Growth rates of the s.c. tumors were monitored. The size of tumors was determined every 3 days for 24-28 days using a digital caliper and by measuring luciferin luminescence at days 15 and 25 using the IVIS imaging system. A blinded observer measured tumor length and width. The volume of the tumor was calculated from the formula: Length×width2×0.52, where length and width were tumor diameters measured with calipers in mutually perpendicular directions. At a tumor size of approximately 10 mm^3 the mice were divided into different groups. A control group received PBS as treatment. As indicated, other groups were treated at different doses (90, 150 or 300 μM) with an intraperitoneal (i.p.) injection of compounds 4 or 8 every 3-4 days for 18-20 days.^24,27
# [7] = system: MB49-I tumors; test: Orthotopic UBC model, MB49-I tumors implanted in the bladder of female mice; type: in vivo; conditions: i.p. biweekly at 150 μM during two weeks
# Method: Orthotopic UBC model. Female C57BL/6J mice (6-8 weeks old), each weighing 15-18 g, were anesthetized and a 24-gauge Teflon catheter was introduced into the bladder lumen through the urethra. To prepare the bladder for tumor implantation, a point lesion was induced in the bladder wall by electrocauterization. Then, 1×10^5 of MB49-I cells in 100 μl of PBS were instilled into the bladder. When indicated, control mice were electrocauterized and PBS was instilled into the bladder. Syringes containing the cell suspension were maintained into the catheter for 20 min to allow cell attachment to the bladder wall.^24,27
# [8] = system: peritoneal macrophages; test: NO and urea production in peritoneal macrophages after in vivo treatment of MB49 tumor-bearing mice; conditions: treatment at 90 and 150 μM; macrophages recovered day 26
# Method: Evaluation of NO and Urea production by chemical methods. The MB49-I cells and the J774A.1 cells (25×10^3 cells/well) were grown and pretreated, as indicated, with various anti-inflammatory derivatives, precursors and mono-functional derivatives for a period of 3 h. Afterwards the cells were washed twice with 10% FBS RPMI-1640 and then activated to produce NO for a period of 24 h with cytokines INFγ and TNFα. NO production was measured using the Griess reagent method as previously described.^27 This method involves the detection of nitrite ions (NO2^−) formed by the spontaneous oxidation of NO under physiological conditions. […] In the presence of NO2^−, sulfanilic acid is converted to a diazonium salt, which in turn is coupled to N-(1-naphthyl)ethylenediamine to produce a pink coloration that is measured with a spectrophotometer (Biotek, synergy HT) at 548 nm. In the same manner, urea synthesis through arginase-1 activity was measured using commercially available kit.
# Ectopic UBC model. […] Growth rates of the s.c. tumors were monitored. The size of tumors was determined every 3 days for 24-28 days using a digital caliper and by measuring luciferin luminescence at days 15 and 25 using the IVIS imaging system. A blinded observer measured tumor length and width. […]
# [9] = system: IκB / NFκB signaling pathway; test: Western blot of phosphorylated IκB in LPS-activated RAW 264.7 cells; type: cell-based, murine; conditions: 90 min pretreatment at 20 and 37.5 μM, 100 ng/mL LPS 15 min
# [10] = i.p. 0, 90, 150, 300 μM during 3 weeks
smiles,measurement,setting,value
"CC(C)(C)OC(=O)NNC(=O)c1ccc(N2C(=O)C=CC2=O)cc1 [Compound 4, N′-[4-(2,5-dioxo-2,5-dihydro-pyrrol-1-yl)-benzoyl]-hydrazine carboxylic acid tert-butyl ester]",IFNγ-induced MHC-II expression,[1],effective in reducing; also recorded: efficiently inhibited
same,relative cell viability / cell survival,[2],stopping cell proliferation
same,IL6-induced motility (scratch assay),[3],inhibit; also recorded: efficiently inhibited
same,invasiveness activity in 3D spheroid-based tumor invasion assay,[4],anti-invasion properties; also recorded: efficiently inhibited
same,tolerability in mice,[5]; concentrations up to 300 μM,well tolerated
same,hematocrit,[5]; [10],no obvious effect
same,normal development and viability,[5]; [10],no obvious effect
same,organs weight,[5]; [10],no obvious effect
same,"liver histological analysis (hepatocellular injury, inflammation, fibrosis, steatosis)",[5]; i.p. up to 300 μM during 3 weeks,no evidence of toxicity; also recorded: does not induce features of liver dysfunction
same,histological examination of lung specimens,[6]; i.p. 150 μM,no metastatic foci
same,number of lung metastases,[6]; i.p. 150 μM,significant decrease; also recorded: significantly reduce
same,size of subcutaneously implanted MB49-I tumors,[6]; i.p. 150 μM,significantly reduce
same,tumor development of MB49-I cells subcutaneously implanted,[6]; i.p. 150 μM,significant decrease; also recorded: significantly affects
same,tumor volume of muscle-invasive MB49-I tumors,"[6]; i.p. 150 μM during 18 days, tumors recovered day 20",anti-proliferative activity
same,development of muscle-invasive MB49-I tumors in the bladder,[7],stopped; also recorded: completely abolished
same,NO production in peritoneal macrophages,[8],significant decrease; also recorded: significantly decrease
same,urea synthesis and release in peritoneal macrophages,[8],significant decrease; also recorded: significantly decrease
same,LPS-activated NFκB signaling pathway (ratio p-IkB/IkB),[9],efficient to inhibit
